PMC7450057, “Enhancing intracellular accumulation and target engagement of PROTACs with reversible covalent chemistry” (Nature Communications, 2020)
Values joined by “and” are separate entries in the source; they are usually repeats but may differ in a detail not shown here. Identical values can stand only once. Like-named read-outs stand apart in the source and are kept apart here.

Key:
[1] = Permeability by lipid-PAMPA method (Pharmaron); type: in vitro ADME; details: for recovery at 16 h, 10 μM: PAMPA
Procedure: The permeability of compounds was measured using Lipid-PAMPA method by Pharmaron. Preparation of stock solutions: testosterone and methotrexate were used as control compounds in this assay. The stock solutions of positive controls were prepared in DMSO or acetonitrile at the concentration of 10 mM. Prepare a stock solution of compounds in DMSO at the concentration of 10 mM, and further dilute with PBS (pH 7.4). […]
Assay procedures: prepare a 1.8% solution (w/v) of lecithin in dodecane, and sonicate the mixture to ensure a complete dissolution. Carefully pipette 5 μL of the lecithin/dodecane mixture into each acceptor plate well (top compartment), avoiding pipette tip contact with the membrane. Immediately after the application of the artificial membrane (within 10 min), add 300 μL of PBS (pH 7.4) solution to each well of the acceptor plate. Add 300 μL of drug-containing solutions to each well of the donor plate (bottom compartment) in triplicate. Slowly and carefully place the acceptor plate into the donor plate, making sure the underside of the membrane is in contact with the drug-containing solutions in all wells. Replace the plate lid and incubate at 25 °C, 60 rpm for 16 h. After incubation, aliquots of 50 μL from each well of acceptor and donor plate are transferred into a 96-well plate. Add 450 μL of methanol (containing IS: 100 nM Alprazolam, 200 nM Caffeine, 100 nM Tolbutamide) into each well. Cover with plate lid. Vortex at 750 rpm for 100 s. Samples were centrifuged at 3220 × g for 20 min. Determine the compound concentrations by LC/MS/MS. The effective permeability (Pe), in units of centimeter per second, can be calculated using the following equation: LogPe=LogC×−Ln1−drugacceptor/drugequilibrium

MOLM-14 cells = assay: AlamarBlue cell viability assay, MOLM-14; details: for MOLM-14 Cell Viability%: Figure 2f, 5 replicates
Procedure: (§1) The IC50 was calculated using GraphPad Prism software with a four-parameter dose-response curve fit.

Mino cells = assay: AlamarBlue cell viability assay, Mino; type: cell-based; details: for Mino Cell Viability%: Figure 2f, 5 replicates; for IC50: Mino cells, 72 h, Alamar Blue
Procedure: as §1

BTK-NanoLuc fusion = molecular target: T1, BTK-NanoLuc fusion (Homo sapiens, UniProt Q06187); assay: NanoBRET BTK in-cell target engagement assay; type: cell-based; details: for NanoBRET(%): Figure 3d, triplicates
T1 construct: host or cells: HEK 293T/17
Procedure: The target engagement assay for BTK or CRBN was from Promega (BTK kit, Cat. No. N2500; CRBN kit, Cat. No. CS1810C136) and was performed according to the manufacture’s instruction with some modifications. Briefly, HEK 293/T17 cells (ATCC) were transiently transfected with BTK-NanoLuc® fusion vector or NanoLuc®-CRBN fusion vector (Promega) in 0.125 M CaCl2 and 1x HBS. Forty-eight hours after transfection, the cells were resuspended in Opti-MEM medium (Life Technologies, Cat. No. 11058021) at the density of 2 × 10^5 cells per mL and were plated into 96-well plates (Corning, Cat. No. CLS3600). Cells were incubated with 1.0 µM (BTK) or 0.5 µM (CRBN) NanoBRET™ Tracer and serially diluted unlabeled BTK PROTAC compounds (from 10 to 0.0032 µM, 5-fold dilution) for 2 h at 37 °С with 5% CO2 in an incubator. After 2 h incubation, the 3X Nano-Glo® Substrate with NanoLuc® extracellular inhibitor were added to cells and developed for 3 min at room temperature. BRET signals were collected using a BioTek SYNERGY H1 microplate reader equipped with a 450/80-nm BP filter for donor emission and a 610-nm LP filter for acceptor emission. BRET Ratio was calculated with the equation: [(Acceptor sample/Donor sample)–(Acceptor no tracer control/Donor no tracer control)] × 1000. The IC50 of the compound against its BTK or CRBN tracer was calculated using GraphPad Prism software.

BTK [2] = molecular target: BTK (Homo sapiens, UniProt Q06187); assay: BTK degradation in MOLM-14 cells (western blot); type: cell-based; parameters: endogenous in cells; host or cells: MOLM-14; details: Figure 2b, duplicates
BTK [3] = molecular target: BTK (Mus musculus, UniProt P35991); assay: BTK degradation in mouse B-cell lymphoma cell line derived from Eu-Myc mice; type: cell-based; parameters: endogenous in cells; host or cells: B cell lymphoma cell line derived from Eu-Myc mice; details: Supplementary Figure 10, replicates, DMSO about 100
Procedure: MOLM-14 cell line was obtained from Dr. Conneely at Baylor College of Medicine, and the Mino cells were purchased from the American Type Culture Collection (ATCC, Cat. No. CRL-3000). Both cell lines were cultured in RPMI 1640 medium (Thermo Fisher Scientific, Cat. No. MT10040CV) supplemented with 10% fetal bovine serum (GE Healthcare, Cat. No. SH30071.03) and 1% Pen/Strep (Thermo Fisher Scientific, Cat. No. 15140163). The wild-type and C481S BTK XLA cell lines were gifts from Dr. Woyach at The Ohio State University and were cultured in RPMI 1640 medium with 15% fetal bovine serum, 1% Pen/Strep, and 1.0 µg/ml puromycin (Thermo Fisher Scientific, Cat. No. A1113803). HEK 293T/17 cells were purchased from ATCC (Cat. No. CRL-11268) were maintained in DMEM (Thermo Fisher Scientific, Cat. No. MT10013CV) with 10% fetal bovine serum and 1% Pen-Strep. The B cell lymphoma cell line derived from Eu-Myc mice was a gift from Dr. Yulin Li at Houston Methodist Research Institute and cultured in RPMI 1640 medium supplemented with 15% (v/v) fetal bovine serum (FBS), 100 U/mL penicillin, 100 μg/mL streptomycin, and 0.05 mM beta-mercaptoethanol and puromycin (1 μg/mL). Cells were grown at 37 °C with 5% CO2.
The collected cells and spleen tissues were lysed in RIPA lysis buffer (50 mM Tris-HCl, pH 7.4, 150 mM NaCl, 1% NP-40, 0.5% sodium deoxycholate, 0.1% SDS) supplemented with Halt™ Protease and Phosphatase Inhibitor Cocktail (Thermo Fisher Scientific, Cat. No. PI78440) immediately before use. Lysates were centrifuged at 15,000 × g for 10 min at 4 °C and the supernatant was quantified for total protein concentration using the Pierce BCA Protein Assay (Thermo Fisher Scientific, Cat. No. 23225). Thirty micrograms of protein were loaded onto sodium dodecyl sulfate−polyacrylamide gel for electrophoresis (Bio-Rad) and transferred onto PVDF membranes (Millipore, Cat. No. IPVH00010). […] Imaging was performed using the ECL Prime chemiluminescent western blot detection reagents (GE Healthcare, Cat. No. RPN2232) by visualization of the blots to X-Ray film or with an Imager (Kindle Biosciences, Cat. No. D1001). All western blots were subsequently processed and quantified with Imager software. Protein level was normalized to β-actin or GAPDH loading controls.

BTK (Mus musculus, UniProt P35991), sequence (P35991 whole entry): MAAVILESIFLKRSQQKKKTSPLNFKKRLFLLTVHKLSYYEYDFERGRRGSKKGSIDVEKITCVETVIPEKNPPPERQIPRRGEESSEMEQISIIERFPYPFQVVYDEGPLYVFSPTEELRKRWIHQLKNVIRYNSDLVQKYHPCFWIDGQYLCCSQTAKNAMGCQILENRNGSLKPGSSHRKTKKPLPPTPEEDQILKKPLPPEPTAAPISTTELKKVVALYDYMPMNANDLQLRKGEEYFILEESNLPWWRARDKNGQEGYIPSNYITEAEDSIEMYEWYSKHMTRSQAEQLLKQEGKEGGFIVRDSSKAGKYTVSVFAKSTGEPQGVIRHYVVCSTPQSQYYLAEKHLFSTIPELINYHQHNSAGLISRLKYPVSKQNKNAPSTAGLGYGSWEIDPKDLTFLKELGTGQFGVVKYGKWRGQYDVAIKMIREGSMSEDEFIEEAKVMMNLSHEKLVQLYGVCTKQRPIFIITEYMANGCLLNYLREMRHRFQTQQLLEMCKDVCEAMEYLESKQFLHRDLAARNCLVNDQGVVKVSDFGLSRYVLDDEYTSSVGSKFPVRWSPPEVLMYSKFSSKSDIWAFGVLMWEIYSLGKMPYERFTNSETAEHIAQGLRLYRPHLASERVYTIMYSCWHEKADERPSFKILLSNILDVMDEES
BTK (Homo sapiens, UniProt Q06187), sequence (Q06187 whole entry): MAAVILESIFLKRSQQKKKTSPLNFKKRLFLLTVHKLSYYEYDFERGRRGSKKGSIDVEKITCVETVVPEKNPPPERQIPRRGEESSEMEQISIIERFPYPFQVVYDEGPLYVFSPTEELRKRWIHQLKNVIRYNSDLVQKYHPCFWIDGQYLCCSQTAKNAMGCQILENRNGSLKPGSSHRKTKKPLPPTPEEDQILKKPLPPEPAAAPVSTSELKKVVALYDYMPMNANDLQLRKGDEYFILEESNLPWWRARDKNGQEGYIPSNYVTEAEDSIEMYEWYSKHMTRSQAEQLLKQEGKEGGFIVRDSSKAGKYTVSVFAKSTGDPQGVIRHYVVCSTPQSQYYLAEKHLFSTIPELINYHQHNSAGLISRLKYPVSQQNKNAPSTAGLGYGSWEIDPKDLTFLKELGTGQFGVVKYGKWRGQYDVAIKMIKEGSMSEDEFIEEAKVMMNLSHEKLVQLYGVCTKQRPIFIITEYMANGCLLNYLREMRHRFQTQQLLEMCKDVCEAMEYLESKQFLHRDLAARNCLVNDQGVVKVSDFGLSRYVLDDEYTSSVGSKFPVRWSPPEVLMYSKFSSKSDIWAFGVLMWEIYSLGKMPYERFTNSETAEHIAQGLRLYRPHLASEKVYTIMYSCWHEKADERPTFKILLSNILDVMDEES
T1 sequence (Q06187 whole entry, the tested form may be a part): as the sequence (Q06187 whole entry) above

Compound | MOLM-14 Cell Viability% (MOLM-14 cells; 1.00E-05 M) | MOLM-14 Cell Viability% (MOLM-14 cells; 1.60E-08 M) | MOLM-14 Cell Viability% (MOLM-14 cells; 2.00E-06 M) | MOLM-14 Cell Viability% (MOLM-14 cells; 3.20E-09 M) | MOLM-14 Cell Viability% (MOLM-14 cells; 4.00E-07 M) | MOLM-14 Cell Viability% (MOLM-14 cells; 6.40E-10 M) | MOLM-14 Cell Viability% (MOLM-14 cells; 8.00E-08 M) | Mino Cell Viability% (Mino cells; 1.00E-06 M) | Mino Cell Viability% (Mino cells; 1.60E-09 M) | Mino Cell Viability% (Mino cells; 2.00E-07 M) | Mino Cell Viability% (Mino cells; 3.20E-10 M) | Mino Cell Viability% (Mino cells; 4.00E-08 M) | Mino Cell Viability% (Mino cells; 5.00E-06 M) | Mino Cell Viability% (Mino cells; 8.00E-09 M) | NanoBRET(%) (BTK-NanoLuc fusion; 1.00E-05 M) | NanoBRET(%) (BTK-NanoLuc fusion; 1.60E-08 M) | NanoBRET(%) (BTK-NanoLuc fusion; 2.00E-06 M) | NanoBRET(%) (BTK-NanoLuc fusion; 3.20E-09 M) | NanoBRET(%) (BTK-NanoLuc fusion; 4.00E-07 M) | NanoBRET(%) (BTK-NanoLuc fusion; 8.00E-08 M) | further results
C[C@]12CC[C@H]3[C@@H](CCC4=CC(=O)CC[C@@]43C)[C@@H]1CC[C@@H]2O [Testosterone, testosterone, reference compound] |  |  |  |  |  |  |  |  |  |  |  |  |  |  |  |  |  |  |  |  | recovery at 16 h, 10 μM ([1]; Mean, read-out: Recovery%): 91.1%; recovery at 16 h, 10 μM ([1]; single replicates, read-out: Recovery%): 88.7%; Recovery% ([1]; single replicates): 88.88% and 95.84%; -Log Pe ([1]; single replicates, 10 μM, PBS pH 7.4, 25 °C, 16 h, Pe in centimeter per second): 4.51 and 4.29 and 4.30
Nc1ncnc2c1c(-c1ccc(Oc3ccccc3)cc1)nn2C1CCN(CCOCCOCC(=O)Nc2ccc3c(c2)C(=O)N(C2CCC(=O)NC2=O)C3=O)CC1 (centres unmarked) [MT-802, reference compound] | 30.9193% and 24.2086% and 26.5576% and 19.8014% and 27.7094% | 94.0978% and 96.8402% and 91.572% and 84.5934% and 78.4642% | 75.5166% and 72.09% and 75.4424% and 57.762% and 72.8197% | 96.9942% and 95.4205% and 85.785% and 84.5706% and 80.2089% | 88.0029% and 82.2386% and 86.6288% and 76.8507% and 80.4769% | 81.9593% and 80.8361% and 77.1985% and 75.6192% and 75.9328% | 97.8209% and 89.394% and 93.0772% and 82.672% and 84.7872% | 55.7423% and 49.4302% and 55.3437% and 39.2835% and 54.1265% | 110.483% and 109.05% and 93.6147% and 92.6129% and 76.2619% | 89.5862% and 87.1949% and 82.8432% and 61.1711% and 66.0828% | 84.5559% and 99.9483% and 73.8491% and 92.4729% and 74.9908% | 100.53% and 96.2968% and 92.2144% and 82.8217% and 85.9885% | 34.2209% and 40.5007% and 48.9347% and 30.3001% and 41.1685% | 99.2266% and 99.1512% and 91.8158% and 60.6002% and 61.5373% | 8.881% and 7.144% and 4.414% | 91.6984% and 97.1324% and 98.4487% | 18.1369% and 17.2809% and 19.5819% | 100.618% and 96.0652% and 96.5159% | 66.8491% and 61.8713% and 67.4598% | 83.5249% and 103.088% and 96.5333% | IC50 (MOLM-14 cells; Homo sapiens, MOLM-14, 72 h, read-out: Cell viability IC50, MOLM-14 cells, 72 h, Alamar Blue): 4700 nM; IC50 (Mino cells; Homo sapiens): 1000 nM; IC50 (BTK-NanoLuc fusion; HEK-293 cells, BTK tracer 1.0 µM, experiment of Fig. 3d, read-out: BTK target engagement IC50): 660 nM; Quantification anti-BTK / anti-β-actin (BTK level vs DMSO) (BTK [2]; 8 nM): 79.5706 and 82.6481; Quantification anti-BTK / anti-β-actin (BTK level vs DMSO) (BTK [2]; 40 nM): 47.7374 and 48.0125; Quantification anti-BTK / anti-β-actin (BTK level vs DMSO) (BTK [2]; 200 nM): 22.5968 and 20.4165; BTK quantification (anti-BTK / anti-β-actin) (BTK [3]; 8 nM): 79.5706 and 82.6481; BTK quantification (anti-BTK / anti-β-actin) (BTK [3]; 40 nM): 47.7374 and 48.0125; BTK quantification (anti-BTK / anti-β-actin) (BTK [3]; 200 nM): 22.5968 and 20.4165
CN(Cc1cnc2nc(N)nc(N)c2n1)c1ccc(C(=O)N[C@@H](CCC(=O)O)C(=O)O)cc1 [Methotrexate, methotrexate, reference compound] |  |  |  |  |  |  |  |  |  |  |  |  |  |  |  |  |  |  |  |  | recovery at 16 h, 10 μM ([1]; Recovery%): 105%
Cc1c(NC(=O)c2ccc(C(C)(C)C)cc2)cccc1-c1cn(C)c(=O)c(Nc2ccc(C(=O)N3CCN(CCCCCCNC(=O)CNc4cccc5c4C(=O)N(C4CCC(=O)NC4=O)C5=O)CC3)cc2)n1 (centres unmarked) [DD-03-171, reference compound] | 97.5451% and 84.66% and 89.4149% and 67.5953% and 78.1969% | 83.9791% and 92.5848% and 65.981% and 62.9872% and 76.0308% | 93.025% and 80.0636% and 90.2426% and 67.3429% and 78.4493% | 93.7588% and 71.6575% and 86.4445% and 88.7633% and 72.8844% | 97.2809% and 75.3792% and 70.6831% and 69.0687% and 74.7981% | 106.497% and 80.5215% and 63.4862% and 80.6741% and 69.8495% | 102.353% and 96.782% and 97.1048% and 76.9172% and 82.8931% | 32.4788% and 32.2293% and 34.0942% and 35.4207% and 39.7021% | 121.168% and 104.266% and 118.227% and 107.943% and 119.96% | 36.6289% and 34.2124% and 35.7227% and 37.3775% and 42.3025% | 132.424% and 103.701% and 122.994% and 107.72% and 141.013% | 54.0832% and 46.6234% and 39.8335% and 52.888% and 75.1359% | 39.9385% and 37.4432% and 38.9273% and 39.4395% and 47.3326% | 56.5785% and 60.1245% and 102.834% and 110.123% and 118.502% | 22.6421% and 28.6973% and 22% | 88.8537% and 90.4209% and 91.9881% | 21.3125% and 25.7571% and 22.7507% | 94.8868% and 96.3909% and 104.805% | 28.4685% and 42.1101% and 35.114% | 85.0919% and 75.63% and 91.5725% | IC50 (MOLM-14 cells; read-out: Cell viability IC50, MOLM-14 cells, 72 h, Alamar Blue): > 10000 nM; IC50 (Mino cells): 50 nM
